Patent US20090042849A1, “Phosphorylation of 5-lipoxygenase at ser523 and uses thereof” (priority 2006, published 2009)

Experiments:
5LO = test: immunoblotting of 5LO in cytosolic, membranous and nuclear fractions of myocardial cells; type: in vivo; conditions: rat myocardium
Procedure: Rats received: 1) […] (20 mg/kg) or 6) water alone (control). PIO and ATV were suspended in water and administered by gastric gavage once daily for 3 days; H-89 was dissolved in DMSO (final concentration 5% v/v) and injected intraperitoneally on the third day. Rats in groups 5 and 6 received water by gastric gavage once daily for 3 days. Rats in groups 1, 2 and 6 received intraperitoneal inkection of DMSO 5%. Sixteen hours after the injection, rats were euthanized and the hearts explanted for further analyses. In another experiment, rats received 3-day pretreatment with: 1) […]); or 5) LPS (10 mg/kg). Myocardial samples (0.25 g) were homogenized, mixed with Buffer A Mix [Hepes (pH 7.9) 10 mM, KCl 10 mM, EDTA 10 mM, DTT 100 mM, protease inhibitor cocktail, and IGEPAL 10%, (Sigma, St Lois, Mo.)], homogenized again and incubated for 15 min on ice, and centrifuged at 850×g for 10 min at 4° C. The supernatant was discharged, Buffer A Mix was added again and the samples incubated for an additional 15 min on ice, and centrifuged at 15,000×g for 3 min at 40 C. The supernatant contains the cytosolic fraction was collected. The pellet was resuspended in 150 μl of Buffer B Mix [Hepes (pH 7.9) 20 mM, NaCl 0.4M, EDTA 1 mM, glycerol 10%, protease inhibitor cocktail, and IGEPAL 10%], the tubes were shaked on ice at 200 rpm for 2 h, centrifuged at 15,000×g for 5 min at 4° C., and supernatants were collected as the nuclear fraction. […] The hearts were rapidly explanted, rinsed in cold PBS (pH 7.4), containing 0.16 mg/ml heparin to remove red blood cells and clots, frozen in liquid nitrogen and stored at -70° C. Myocardial samples from the anterior left ventricular wall were homogenized in RIPA lysis buffer (Santa Cruz Biotechnology, Santa Cruz, Calif.) and centrifuged at 14,000 rpm for 15 min at 4° C. The supernatant was collected and the total protein concentration was determined using the Lowry protein assay. […] The protein samples with loading buffer were run in 4-20% Tri-HCl Ready Gel at a 100V for 2 h until the desired molecular weight bands were separated. After electrophoresis, the gel was equilibrated in transfer buffer (25 mM Tris, 193 mM glycine, 0.1% SDS and 10% methanol) and the proteins were transferred to nitrocellulose membrane. The protein signals were quantified by an image-scanning-densitometer and the strength of each protein signal was normalized to the corresponding b-actin stain signal. Data are expressed as a ratio between the protein and the corresponding b-actin signal density.

5LO mRNA = test: rtPCR of 5LO mRNA in adult rat cardiomyocytes; type: cell-based
Procedure: Cardiac myocytes were isolated from adult Sprague-Dawley rats (250-300 g, male). Animals were heparinized (1,000-2,000 units i.p.) 5 min before being anesthetized with ketamine (100 mg/kg) and xylazine (10 mg/kg), and the hearts were removed and placed in ice-cold heart media solution (in mmol/l: 112 NaCl, 5.4 KCl, 1 MgCl2, 9 NaH2PO4, and 11.1 D-glucose; supplemented with 10 HEPES, 30 taurine, 2 DL-carnitine, and 2 creatine, pH. 7.4). The hearts were perfused retrogradely in a Langendorff apparatus with Ca^2+-free heart media for 5 min at 5 ml/min at 37° C., followed by perfusion with Ca^2+-free heart media containing collagenase II, 210 U/mg (Worthington, Lakewood, N.J.) for 20 min. After perfusion, both ventricles were removed from the heart and minced in collagenase II-containing heart media for 10-15 min. The cell solution was then washed several times to remove collagenase II and reexposed to 1.2 mM Ca2^+ over 25 min to produce Ca2^+-tolerant cardiac myocytes. Myocytes were then plated in 4% FBS on laminin (2 μg/cm^2)-coated plates for 1 h and incubated at 37° C. in 5% CO2 for 12-24 h before experiments (21). Cells were incubated with 1) vehicle (0.07% ethanol); 2) PIO (10 μM)+ATV (10 μM); 3) H-89 (0.1 μM); or 4) PIO+ATV+H-89 for 12 hours. The supernatants were collected directly for LTB4 analyses by ELISA and the cells were harvested for immunoblotting. In addition, cells were plated in 8-chamber slides, received the same treatment as above and were used for immunohistochemical staining.
Equal amounts of total cellular RNA were reverse-transcribed with oligo(dT) primer by use of AMV Reverse Transcriptase (Applied Biosystems). Transcribed cDNAs (40 ng) were used for Real Time PCR with specific primers: rat ALOX5. […] The Ct (threshold cycle) is defined as the number of cycles required for the fluorescence signal to exceed the detection threshold. Expression of the ALOX5 relative to the GAPDH was calculated as the different between the threshold values of these two genes. […]

Compound: CC(C)c1c(C(=O)Nc2ccccc2)c(-c2ccccc2)c(-c2ccc(F)cc2)n1CCC(O)CC(O)CC(=O)O (stereo not drawn) [ATV, 7-[2-(4-fluorophenyl)-5-(1-methylethyl)-3-phenyl-4-(phenylcarbamoyl)-1H-pyrrol-1-yl]-3,5-dihydroxy-heptanoic acid]
- 5LO levels in the cytosolic fraction (5LO): small, yet significant increase
- 5LO levels in the membranous fraction (5LO): no detectable effect
- 5LO mRNA levels in the cardiomyocytes (5LO mRNA): did not affect

Compound: O=S(=O)(NCCNC/C=C/c1ccc(Br)cc1)c1cccc2cnccc12 [H-89]
- 5LO levels in the cytosolic fraction (5LO): no significant effect
- 5LO levels in the membranous fraction (5LO): no significant effect
- 5LO mRNA levels in the cardiomyocytes (5LO mRNA): did not affect
